We go through seven molecules from PMC6920794, “Evaluation of Novel Chalcone-Thiosemicarbazones Derivatives as Potential Anti-Leishmania amazonensis Agents and Its HSA Binding Studies” (Biomolecules, 2019).

For series [1] the following is noted: constant of substituent 4-X; cited from earlier work.
Series [2] concerns L. amazonensis promastigotes. Kind of series: Promastigote assay (MTT). The class given is cell-based, Leishmania amazonensis. The conditions noted are these: after 48 h of culture (table title); for IC50: Leishmania amazonensis. The procedure: Leishmania amazonensis (MHOM/BR/77/LTB0016) were regularly isolated from infected mice and maintained in culture as promastigotes through weekly passages in Schneider’s medium (Sigma Aldrich, St. Louis, MO, USA) supplemented with 10% (v/v) heat-inactivated fetal calf serum, penicillin (100 UI/mL), and streptomycin (100 µg/mL) at 299K. Parasites were maintained until the 10th passage. The Animal Ethics Committee of the Oswaldo Cruz Foundation (license number L026/2015) approved this study.
Promastigotes of L. amazonensis (1 × 10^6 promastigotes/mL) in the 4th day on culture in the conditions described above were incubated with the chalcones serially diluted in culture medium (0.032% v/v DMSO at the highest concentration tested) on a 96-well cell culture plate (TPP™ test plate, Switzerland). The assayed concentrations ranged from 50 to 1.56 µM for all chalcone-thiosemicarbazones (5a–g) and for pentamidine (Sigma Aldrich, St. Louis, MO, USA). […] All compounds were analyzed in at least three experiments performed in triplicate. Pentamidine was used as the reference drug and diluted in the same concentrations used for 5a–g. The vehicle (DMSO) had no effect on the parasites.
The antileishmanial activity was evaluated by adding 22 µL of 3-(4,5-dimethylthiazol-2-yl)-2-5diphenyltetrazolium bromide (MTT) at 5 mg/mL (Sigma Aldrich, St. Louis, MO, USA) to each well. After 2 h, 80 µL of DMSO was added and the optical density was determined at a wavelength of 570 nm in a microplate reader (µQuant Bio-Tek Instruments®, Winooski). The assays were carried out in triplicate in 96-well plates (Costar, New York, USA). The inhibition percentage was estimated by the comparison with the non-treated control. The values for the inhibitory concentration for 50% of the promastigotes (IC50) were calculated by a sigmoidal model.

The test system of series [3] is murine peritoneal macrophages. Put plainly: Macrophage cytotoxicity (resazurin). Type of series: cell-based. The procedure: Peritoneal macrophages from albino laboratory-bred strain (BALB/c) mice were obtained in RPMI 1640 medium at pH 7.2 (Gibco, New York, NY, USA) supplemented with 10% (v/v) heat-inactivated fetal bovine serum, 100 U/mL penicillin and 0.1 mg/mL of streptomycin and distributed (1 × 10^6 macrophages/well) in triplicate in 96-well plates (Falcon Co., Franklin Lakes, USA) and incubated for 1 h in a 5% CO2 atmosphere incubator at 310K. The supernatant was removed, and the compounds were added to the plate at concentrations from 10 µM to 50 µM. Next, the cultures were incubated for 48 h in a CO2 incubator at 310K. After incubation, the supernatant was removed and a resazurin solution (50 µM) was added to each well and incubated at 310K for 4 h. Furthermore, the fluorescence was measured using a wavelength of 560 nm for excitation and 590 nm for detection (Molecular Devices, Silicon Valley, USA). Results were expressed as the percentage of viable cells compared to the control cells treated with the highest DMSO dose used to dissolve the drugs. The 50% cytotoxic concentration (CC50) was calculated using GraphPad Prism 6.0 software (GraphPad Company, San Diego, CA, USA).
(In general: Resazurin is reduced to fluorescent resorufin, in cell work by metabolically active cells.)

Series [4] deals with L. amazonensis axenic amastigotes. Kind of series: Axenic amastigotes assay (resazurin). Type of series: cell-based. The following applies: Leishmania amazonensis, 72 h of culture, table title says 48 h. The procedure:
Promastigote forms of L. amazonensis (MHOM/BR/77/LTB0016) were grown to a stationary phase, washed once in phosphate buffer solution (PBS) (pH = 7.4) and adjusted to 5 × 10^6 parasites/mL in Schneider’s medium, supplemented with 20% fetal bovine solution (FBS) pH = 5.5 and maintained at 305K. After 5 days of cultivation, the rounded forms without free flagella were obtained and, after heat shock, were used in the appropriate assays. To evaluate the activity against axenic amastigotes, the parasites were incubated with increasing concentrations of the prototypes (diluted in DMSO) for 72 h at 305K. These assays were performed in triplicate in 96-well flat bottom plates (Falcon Co, Franklin Lakes, USA). The leishmanicidal activity was evaluated by adding 22 μl of resazurin to each well. After 4 h, the cell viability was measured as described above. Calculation of the IC50 values was determined in relation to the control by a sigmoidal model using GraphPad Prism 6.0 software.

In series [5] the test system is L. amazonensis intracellular amastigotes. Put plainly: Intracellular amastigotes assay in infected macrophages. Type of series: cell-based, Leishmania amazonensis. The following applies: for IC50: L. amazonensis-infected murine peritoneal macrophages, 48 h of culture; for Selectivity Index (SI): SI = LD50/IC50 intracellular amastigotes. The procedure: Peritoneal macrophages were obtained BALB/c mice with cold Roswell Park Memorial Institute (RPMI) 1640 medium (Sigma Aldrich, St. Louis, MO, USA) supplemented as above. The cell suspension was adjusted to 1 × 10^6 macrophage/mL and incubated in a LAB-TEK 8-chamber slide (Nunc, Roskilde, Denmark) at 310K and 5% CO2 for 1 h. Non-adherent cells were removed and stationary-phase L. amazonensis promastigotes were added at a 3:1 parasite/macrophage ratio. The cultures were incubated for a further 4 h, and free parasites were removed. The chambers were washed, and the monolayers were incubated with the compounds for 48 h. Infected macrophages incubated only in the culture medium were used as controls to compare with the infected treated macrophages. […] The cultures were fixed in methanol and stained with the hematological system Instant Prov (Newprov®, Curitiba, Brazil). The slides were examined by light microscopy, and the number of infected macrophages and the mean number of parasites per macrophage were determined in 100 cells counted. The experiments were performed twice in triplicate. The percentage of infected macrophages was calculated by dividing the number of infected macrophages by the total number of macrophages (infected and uninfected) counted on the slides, multiplied by 100. To determine the infection index, the percentage of infected macrophages was multiplied by the mean number of parasites per macrophage. The percentage inhibition of infection was calculated by multiplying the difference between the infection index of the control and the compound by 100 and dividing by the infection index (IF) of the control using the Equation (1):IF = % infected cells × amastigotes number/total number of macrophages(1) The IC50 ± SD (SD: standard deviation) values were obtained by a sigmoidal model using Origin 6.0 with statistical error limits up to 10%. All tests were conducted in duplicate for each concentration, and two independent assays were performed.

Where [6] appears, read: Leishmania amazonensis, Peritoneal macrophage, in Mus musculus, 48 h.

Molecules are shown by their SMILES.

Usually IC50 stands for the point on the concentration scale where inhibition reaches its midpoint. Higher therefore signals weaker potency in that assay. For the molecule `NC(=S)N/N=C(\C=C\c1ccccc1)c1ccccc1` [Compound 5a, (1E,2E)-3-(phenyl)-1-phenylprop-2-en-1-one thiosemicarbazone], in series [1], the “Hammett constant σp” value is given as 0.00, the “Hansh constant π (lipophilicity)” value was 0.00, the “Taft constant Es” value is 0.00 and the “molecular refractivity MR” value was 0.00. This molecule showed an IC50 in series [2] of 14.7 ± 0.31 µM. Further, the “Macrophages LD50” value in series [3] (BALB/c, mouse, 48 h, pH 7.2) amounted to 40.98 ± 1.12 µM. In series [4], 6.88 ± 1.09 µM corresponded to half-maximal inhibition (IC50).

In series [5] (setting [6]), `Cc1ccc(/C=C/C(=N\NC(N)=S)c2ccccc2)cc1` [Compound 5b, (1E,2E)-3-(4′-methylphenyl)-1-phenylprop-2-en-1-one thiosemicarbazone] yielded an IC50 of 5.95 ± 0.61 µM. Also, in series [5], the “Selectivity Index (SI)” value came out at 9.47. Moreover, in series [1], the “Hammett constant σp” value was −0.14, the “Hansh constant π (lipophilicity)” value is listed as 0.56, the “Taft constant Es” value was −0.25 and the “molecular refractivity MR” value is 0.57. In series [2], this molecule gave an IC50 of 14.8 ± 1.92 µM. Moreover, the “Macrophages LD50” value in series [3] (BALB/c, mouse, 48 h, pH 7.2) is given as 56.35 ± 0.78 µM. Besides, 7.08 ± 1.03 µM corresponded to half-maximal inhibition in series [4] (IC50).

As a reminder, the melting point is the temperature of the solid-liquid transition. `N#Cc1ccc(/C=C/C(=N\NC(N)=S)c2ccccc2)cc1` [Compound 5c, (1E,2E)-3-(4′-cyanophenyl)-1-phenylprop-2-en-1-one thiosemicarbazone] returned a melting point of 195 to 196 °C. Moreover, in series [1], the “Hammett constant σp” value is on record as 0.71, the “Hansh constant π (lipophilicity)” value is −0.57, the “Taft constant Es” value is −0.51 and the “molecular refractivity MR” value is reported as 0.63. Moreover, the “Promastigotes IC50” value in series [2] was “no significant activity”.

Take `NC(=S)NN=C(C=Cc1ccc(F)cc1)c1ccccc1` [Compound 5d, (1E,2E)-3-(4′-fluorphenyl)-1-phenylprop-2-en-1-one thiosemicarbazone]: the IC50 in series [5] is greater than 3.13 µM; in series [5] (setting [6]) it was 3.4 to 5.95 µM; in series [2] it was 13.1 ± 1.85 µM; in series [4], 5.57 ± 1.15 µM. In series [1], the “Hammett constant σp” value is 0.15. The “Hansh constant π (lipophilicity)” value in series [1] is 0.14. In series [1], the “Taft constant Es” value is on record as −0.46. Further, the “molecular refractivity MR” value in series [1] is 0.10. Further, the “Macrophages LD50” value in series [3] (BALB/c, mouse, 48 h, pH 7.2) is reported as 35.47 ± 1.38 µM.

As to `NC(=S)N/N=C(\C=C\c1ccc(Br)cc1)c1ccccc1` [Compound 5f, (1E,2E)-3-(4′-bromophenyl)-1-phenylprop-2-en-1-one thiosemicarbazone], in series [1], the “Hammett constant σp” value is 0.26, the “Hansh constant π (lipophilicity)” value is 0.86, the “Taft constant Es” value is −1.16 and the “molecular refractivity MR” value is listed as 0.89. In series [2], this molecule displayed an IC50 of 12.5 ± 0.99 µM. Further, in series [3] (BALB/c, mouse, 48 h, pH 7.2), the “Macrophages LD50” value was found to be 44.24 ± 4.21 µM. The IC50 in series [4] was determined as 4.24 ± 1.07 µM.

Molecule `NC(=S)N/N=C(\C=C\c1ccc([N+](=O)[O-])cc1)c1ccccc1` [Compound 5g, (1E,2E)-3-(4′-nitrophenyl)-1-phenylprop-2-en-1-one thiosemicarbazone] gave a melting point of 188 to 190 °C. Besides, in series [1], the “Hammett constant σp” value is reported as 0.81, the “Hansh constant π (lipophilicity)” value was −0.28, the “Taft constant Es” value is −1.01 and the “molecular refractivity MR” value is recorded as 0.74. Further, the “Promastigotes IC50” value in series [2] is listed as “no significant activity”.

For the molecule `N=C(N)c1ccc(OCCCCCOc2ccc(C(=N)N)cc2)cc1` [Pentamidine, pentamidine, reference compound], the IC50 was 11.1 ± 1.98 µM in series [5] (Leishmania amazonensis, Peritoneal macrophage); 4.9 ± 0.6 µM in series [2]; 12.3 ± 1.17 µM in series [4]. Also, in series [5], the “Selectivity Index (SI)” value worked out at 2.32. The “Macrophages LD50” value in series [3] (murine peritoneal macrophages, 48 h of culture) came out at 25.85 ± 4.06 µM.
